Measurements from patent US8952128B2, “Somatostatin-dopamine chimeric analogs” (priority 2012, dated 2015).
Where two headings read alike, the source gives them in different places. Numbered stars: 1 amine (or outer) side, 2 acyl side, 3 side chain; on linkers, the order of the positions; unused ones are H or OH. Bridge positions count the residues as written; N and C are the ends. Square brackets hold non-standard residues; d marks the D form. Peptide text beside a SMILES is read from it. * marks the point of attachment. X1 = CN1C[C@H](CSCCN(CCSC[C@@H]2C[C@@H]3c4cccc5[nH]cc(c45)C[C@H]3N(C)C2)[C@H](CCCCN[*:2])C(=O)[*:1])C[C@@H]2c3cccc4[nH]cc(c34)C[C@H]21; X2 = CN1C[C@H](CSCC(=O)*)C[C@@H]2c3cccc4[nH]cc(c34)C[C@H]21; Phe(4-F) = N[C@@H](Cc1ccc(F)cc1)C(=O)O; 4Pal = N[C@@H](Cc1ccncc1)C(=O)O

What was measured:
hSSTR2 = hSSTR2 (Homo sapiens (Human), UniProt P30874); assay: Intracellular calcium mobilization assay (FLIPR Calcium 4), hSSTR2; assay type: cell-based; details: for Emax: read-out: hSSTR2 % Emax ± SEM; for improvement in EC50 over Reference Compound A: Student's t-test, one-tailed, p <0.05; for improvement in EC50 and/or % Emax over Reference Compound B: calcium mobilization;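 for all read-outs here: agonist activity read as intracellular calcium rise in cells expressing human SSTR2, loaded with a calcium-sensitive dye for 60 min at 37 °C, measured by FLIPR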
hDRD2 = hDRD2 (Homo sapiens (Human), UniProt P14416); assay: cell-based; details: for Emax: read-out: hDRD2 % Emax ± SEM
Protocol: The ability of select compounds according to the present invention to activate hSSTR2 and hDRD2 was determined by the intracellular calcium mobilization assay using FLIPR Calcium 4 assay kit (Molecular Devices).
Cells expressing hSSTR2 or hDRD2 were plated in 384-well microplates in tissue culture media and incubated for 16-24 hours at 37° C. in a humidified atmosphere with 5% CO2. Medium was replaced by loading buffer containing Hank's buffered saline, 20 mM HEPES, 2.5 mM probenecid and Calcium 4 dye, and the plates were incubated at 37° C. for 60 minutes.

[1] = maximal effect in percentage of the maximal effect of SRIF-14

Sequence of hSSTR2 (P30874 whole entry): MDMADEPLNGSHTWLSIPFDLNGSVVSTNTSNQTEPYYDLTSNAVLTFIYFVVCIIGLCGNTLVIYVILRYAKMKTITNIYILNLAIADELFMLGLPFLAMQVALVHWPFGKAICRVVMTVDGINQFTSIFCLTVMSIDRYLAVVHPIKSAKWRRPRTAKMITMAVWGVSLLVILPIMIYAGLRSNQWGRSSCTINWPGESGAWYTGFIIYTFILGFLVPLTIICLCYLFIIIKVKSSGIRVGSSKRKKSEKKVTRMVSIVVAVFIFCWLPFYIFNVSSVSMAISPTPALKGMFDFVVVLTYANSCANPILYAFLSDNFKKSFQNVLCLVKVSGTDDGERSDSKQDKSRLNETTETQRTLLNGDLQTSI

Row | Molecule | Emax (hSSTR2) [%] | further results
1 | CC(=O)N(CCC(=O)NC(CN[C@@H]1CCCCNC(=O)[C@H](Cc2ccc(F)cc2)NC(=O)[C@H]([C@@H](C)O)NC(=O)[C@H](CCCCN)NC(=O)[C@@H](Cc2c[nH]c3ccccc23)NC(=O)[C@H](Cc2ccccc2)NC(=O)[C@H](Cc2ccccc2)NC(=O)[C@H](CCCNC(=N)N)NC1=O)Cc1ccc(O)cc1)C[C@@H]1C[C@@H]2c3cccc4[nH]cc(c34)C[C@H]2N(C)C1 (single isomer, unassigned) [Compound 27, 3-[N-acetyl-N-(D-6-methyl-8β-ergolinylmethyl)]-aminopropionyl-Tyr-psi(CH2NH)-cyclo(DLys-Arg-Phe-Phe-DTrp-Lys-Thr-4FPhe)] | 95.9 ± 2.4 | EC50 (hSSTR2): 11.4 ± 2 nM; EC50 (hDRD2): 50.7 ± 6.8 nM
2 | CC(=O)N(CCCNC(CN[C@@H]1CCCCNC(=O)[C@H](Cc2ccc(F)cc2)NC(=O)[C@H]([C@@H](C)O)NC(=O)[C@H](CCCCN)NC(=O)[C@@H](Cc2c[nH]c3ccccc23)NC(=O)[C@H](Cc2ccccc2)NC(=O)[C@H](Cc2ccccc2)NC(=O)[C@H](CCCNC(=N)N)NC1=O)Cc1ccc(O)cc1)C[C@@H]1C[C@@H]2c3cccc4[nH]cc(c34)C[C@H]2N(C)C1 (single isomer, unassigned) [Compound 28A, 3-[N-acetyl-N-(D-6-methyl-8β-ergolinylmethyl)]-aminopropionyl-psi(CH2NH)-Tyr-psi(CH2NH)-cyclo(DLys-Arg-Phe-Phe-DTrp-Lys-Thr-4FPhe)] | 109 ± 20 | EC50 (hSSTR2): 14.9 ± 6.3 nM; EC50 (hDRD2): 65.5 ± 3.6 nM
3 | C[C@@H](O)[C@@H]1NC(=O)[C@H](CCCCN)NC(=O)[C@@H](Cc2c[nH]c3ccccc23)NC(=O)[C@H](Cc2ccccc2)NC(=O)[C@H](Cc2ccccc2)NC(=O)[C@H](CCCNC(=N)N)NC(=O)[C@H](NCCC[C@@H]2C[C@@H]3c4cccc5[nH]cc(c45)C[C@H]3N(C)C2)CCCCNC(=O)[C@H](Cc2ccc(F)cc2)NC1=O [Compound 1, (D-6-methyl-8β-ergolinyl)-propionyl-psi(CH2NH)-cyclo(DLys-Arg-Phe-Phe-DTrp-Lys-Thr-4FPhe)] | 98.7 | Emax (hDRD2): 102.1 ± 0.4%
4 | C[C@@H](O)[C@@H]1NC(=O)[C@H](CCCCN)NC(=O)[C@@H](Cc2c[nH]c3ccccc23)NC(=O)[C@H](Cc2ccccc2)NC(=O)[C@H](Cc2ccccc2)NC(=O)[C@H](CCCNC(=N)N)NC(=O)[C@H](NCCSC[C@@H]2C[C@@H]3c4cccc5[nH]cc(c45)C[C@H]3N(C)C2)CCCCNC(=O)[C@H](Cc2ccc(F)cc2)NC1=O [Compound 6, Dop1-psi(CH2NH)-cyclo(DLys-Arg-Phe-Phe-DTrp-Lys-Thr-4FPhe)] | 99.1 ± 0.6 | improvement in EC50 over Reference Compound A (hSSTR2): statistically significant improvement; Emax (hDRD2): 88.3 ± 5.1%
5 | C[C@@H](O)[C@@H]1NC(=O)[C@H](CCCCN)NC(=O)[C@@H](Cc2c[nH]c3ccccc23)NC(=O)[C@H](Cc2ccncc2)NC(=O)[C@H](Cc2ccccc2)NC(=O)[C@H](CCCNC(=N)N)NC(=O)[C@H](NCCSC[C@@H]2C[C@@H]3c4cccc5[nH]cc(c45)C[C@H]3N(C)C2)CCCCNC(=O)[C@H](Cc2ccc(O)cc2)NC1=O [Compound 7, Dop1-psi(CH2NH)-cyclo(DLys-Arg-Phe-4Pal-DTrp-Lys-Thr-Tyr)] | 96.9 ± 2.5 | improvement in EC50 over Reference Compound A (hSSTR2): statistically significant improvement; Emax (hDRD2): 102 ± 5%
6 | CC(=O)N(CCCN(C(C)=O)[C@@H]1CCCCNC(=O)[C@H](Cc2ccc(F)cc2)NC(=O)[C@H]([C@@H](C)O)NC(=O)[C@H](CCCCN)NC(=O)[C@@H](Cc2c[nH]c3ccccc23)NC(=O)[C@H](Cc2ccccc2)NC(=O)[C@H](Cc2ccccc2)NC(=O)[C@H](CCCNC(=N)N)NC1=O)C[C@@H]1C[C@@H]2c3cccc4[nH]cc(c34)C[C@H]2N(C)C1 [Compound 28, 3-[N-acetyl-N-(D-6-methyl-8β-ergolinylmethyl)]-aminopropionyl-psi(CH2NAc)-cyclo(DLys-Arg-Phe-Phe-DTrp-Lys-Thr-4FPhe)] | 98.7 ± 2 | 
7 | C[C@@H](O)[C@@H]1NC(=O)[C@H](CCCCN)NC(=O)[C@@H](Cc2c[nH]c3ccccc23)NC(=O)[C@H](Cc2ccncc2)NC(=O)[C@H](Cc2ccccc2)NC(=O)[C@H](CCCNC(=N)N)NC(=O)[C@H](N(CCSC[C@@H]2C[C@@H]3c4cccc5[nH]cc(c45)C[C@H]3N(C)C2)CCSC[C@@H]2C[C@@H]3c4cccc5[nH]cc(c45)C[C@H]3N(C)C2)CCCCNC(=O)[C@H](Cc2ccccc2)NC1=O [Compound 29, bis[Dop1-psi(CH2N)]-cyclo(DLys-Arg-Phe-4Pal-DTrp-Lys-Thr-Phe)] (RF[4Pal][dW]KTF; linker N-C via X1) | 97 ± 4.9 | improvement in EC50 over Reference Compound A (hSSTR2): statistically significant improvement
8 | CC(=O)N(CCCN[C@@H]1CCCCNC(=O)[C@H](Cc2ccc(F)cc2)NC(=O)[C@H]([C@@H](C)O)NC(=O)[C@H](CCCCN)NC(=O)[C@@H](Cc2c[nH]c3ccccc23)NC(=O)[C@H](Cc2ccccc2)NC(=O)[C@H](Cc2ccccc2)NC(=O)[C@H](CCCNC(=N)N)NC1=O)C[C@@H]1C[C@@H]2c3cccc4[nH]cc(c34)C[C@H]2N(C)C1 [Compound 29A, 3-[N-acetyl-(D-6-methyl-8β-ergolinylmethyl)]-aminopropionyl-psi(CH2NH)-cyclo(DLys-Arg-Phe-Phe-DTrp-Lys-Thr-4FPhe)] | 100 ± 23.2 | 
9 | C[C@@H](O)[C@@H]1NC(=O)[C@H](CCCCN)NC(=O)[C@@H](Cc2c[nH]c3ccccc23)NC(=O)[C@H](Cc2ccccc2)NC(=O)[C@H](Cc2ccccc2)NC(=O)[C@H](CCCNC(=N)N)NC(=O)[C@@H](NC[C@H](Cc2ccc(O)cc2)NC(=O)CSC[C@@H]2C[C@@H]3c4cccc5[nH]cc(c45)C[C@H]3N(C)C2)CCCCNC(=O)[C@H](Cc2ccccc2)NC1=O [Compound 31, Dop1-Tyr-psi(CH2NH)-cyclo(Lys-Arg-Phe-Phe-DTrp-Lys-Thr-Phe)] | 85.1 ± 4.7 | 
10 | C[C@@H](O)[C@@H]1NC(=O)[C@H](CCCCN)NC(=O)[C@@H](Cc2c[nH]c3ccccc23)NC(=O)[C@H](Cc2ccccc2)NC(=O)[C@H](Cc2ccccc2)NC(=O)[C@H](CCCNC(=N)N)NC(=O)[C@H](NC[C@H](Cc2ccc(O)cc2)NC(=O)CSC[C@@H]2C[C@@H]3c4cccc5[nH]cc(c45)C[C@H]3N(C)C2)CCCCNC(=O)[C@H](Cc2ccccc2)NC1=O [Compound 32, Dop1-Tyr-psi(CH2NH)-cyclo(DLys-Arg-Phe-Phe-DTrp-Lys-Thr-Phe)] | 87.5 ± 4.3 | improvement in EC50 and/or % Emax over Reference Compound B (hSSTR2): statistically significant improvement
11 | C[C@@H](O)[C@@H]1NC(=O)[C@H](CCCCN)NC(=O)[C@@H](Cc2c[nH]c3ccccc23)NC(=O)[C@H](Cc2ccccc2)NC(=O)[C@H](Cc2ccccc2)NC(=O)[C@H](CCCNC(=N)N)NC(=O)[C@H](NC[C@H](Cc2ccc(O)cc2)NC(=O)CSC[C@@H]2C[C@@H]3c4cccc5[nH]cc(c45)C[C@H]3N(C)C2)CCCCNC(=O)[C@H](Cc2ccc(O)cc2)NC1=O [Compound 33, Dop1-Tyr-psi(CH2NH)-cyclo(DLys-Arg-Phe-Phe-DTrp-Lys-Thr-Tyr)] | 95.7 ± 5.1 | improvement in EC50 and/or % Emax over Reference Compound B (hSSTR2): statistically significant improvement
12 | C[C@@H](O)[C@@H]1NC(=O)[C@H](CCCCN)NC(=O)[C@@H](Cc2c[nH]c3ccccc23)NC(=O)[C@H](Cc2ccccc2)NC(=O)[C@H](Cc2ccccc2)NC(=O)[C@H](CCCNC(=N)N)NC(=O)[C@H](NC(=O)CSC[C@@H]2C[C@@H]3c4cccc5[nH]cc(c45)C[C@H]3N(C)C2)CCCCNC(=O)[C@H](Cc2ccc(F)cc2)NC1=O [Compound 34, Dop1-cyclo(DLys-Arg-Phe-Phe-DTrp-Lys-Thr-4FPhe)] (X2-[dK]RFF[dW]KT[Phe(4-F)]; lactam 1-C) | 95.1 ± 7.1 | 
13 | C[C@@H](O)[C@@H]1NC(=O)[C@H](CCCCN)NC(=O)[C@@H](Cc2c[nH]c3ccccc23)NC(=O)[C@H](Cc2ccncc2)NC(=O)[C@H](Cc2ccccc2)NC(=O)[C@H](CCCNC(=N)N)NC(=O)[C@H](N(CCSC[C@@H]2C[C@@H]3c4cccc5[nH]cc(c45)C[C@H]3N(C)C2)CCSC[C@@H]2C[C@@H]3c4cccc5[nH]cc(c45)C[C@H]3N(C)C2)CCCCNC(=O)[C@H](Cc2ccc(O)cc2)NC1=O [Compound 35, bis[Dop1-psi(CH2N)]-cyclo(DLys-Arg-Phe-4Pal-DTrp-Lys-Thr-Tyr)] (RF[4Pal][dW]KTY; linker N-C via X1) |  | Emax (hSSTR2; [1]): 91.2 ± 11%
14 | C[C@@H](O)[C@@H]1NC(=O)[C@H](CCCCN)NC(=O)[C@@H](Cc2c[nH]c3ccccc23)NC(=O)[C@H](Cc2ccccc2)NC(=O)[C@H](Cc2ccccc2)NC(=O)[C@H](CCCNC(=N)N)NC(=O)[C@H](N(CCSC[C@@H]2C[C@@H]3c4cccc5[nH]cc(c45)C[C@H]3N(C)C2)CCSC[C@@H]2C[C@@H]3c4cccc5[nH]cc(c45)C[C@H]3N(C)C2)CCCCNC(=O)[C@H](Cc2ccc(F)cc2)NC1=O [Compound 39, bis[Dop1-psi(CH2N)]-cyclo(DLys-Arg-Phe-Phe-DTrp-Lys-Thr-4FPhe)] (RFF[dW]KT[Phe(4-F)]; linker N-C via X1) | 87.1 ± 4.7 | 
15 | C[C@@H](O)[C@@H]1NC(=O)[C@H](CCCCN)NC(=O)[C@@H](Cc2c[nH]c3ccccc23)NC(=O)[C@H](Cc2ccccc2)NC(=O)[C@H](Cc2ccccc2)NC(=O)[C@H](CCCNC(=N)N)NC(=O)[C@H](NCCCS(=O)(=O)C[C@@H]2C[C@@H]3c4cccc5[nH]cc(c45)C[C@H]3N(C)C2)CCCCNC(=O)[C@H](Cc2ccc(F)cc2)NC1=O [Compound 48, (D-6-methyl-8β-ergolinylmethyl)-sulfonylpropyl-cyclo(DLys-Arg-Phe-Phe-DTrp-Lys-Thr-4FPhe)] | 95.5 ± 11.9 | 
16 | Dop1-cyclo(DLys-Arg-Phe-Phe-DTrp-Lys-Thr-Phe) [Compound 44] |  | hSSTR2 % Emax ± SEM (hSSTR2; [1]): 97.1 ± 5.9%
